Laboratory results published in patent publication US8722707B1, “Compositions and methods for inhibition of smooth muscle cell proliferation and neointimal hyperplasia” (The Ohio State University, priority 2009, dated 2014).

Tests used:
[1] = test system: p38 mitogen-activated protein kinase; test: Activation of p38 mitogen-activated protein kinase in cultured SMCs; type: cell-based, human; settings: data not shown
Description: (§1) We next wanted to check the involvement of reactive oxygen species-mediated p38 mitogen-activated protein kinase pathways in the activation of ATF-2.

MMP-9 [2] = test: MMP-9 expression in SMCs (Western blot, immunofluorescence); type: cell-based, human; settings: 10 μM for 12 or 24 h
Description: (§2) Western blotting was performed as reported previously (Selvendiran K, Tong L, Vishwanath S, Bratasz A, Trigg N J, Kutala V K, Hideg K, and Kuppusamy P, EF 24 induces G 2/M arrest and apoptosis in cisplatin-resistant human ovarian cancer cells by increasing PTEN expression. J Biol Chem 282::28609-28618).
(§3) SMCs, grown on Lab-Tek Chamber slides (Nalge Nunc International, Rochester, N.Y.), were fixed with 4% paraformaldehyde for 10 min at room temperature and then washed in PBS containing 0.05% Tween 20. Nonspecific reactions were blocked with Protein B lock Serum-Free (DAKO, Kyoto, Japan) and then incubated with an anti-PTEN, MMP-2, or MMP-9 antibody at 4 C overnight. After washing in PBS containing 0.05% Tween 20, the specimens were treated with Alexa Fluor goat anti-mouse IgG (H+L) antibody (Invitrogen, Carlsbad, Calif.) for 45 min at room temperature and then counterstained by propidium iodide after digestion of RNA by RNase (Invitrogen). The immunostaining of PTEN, MMP-2, and MMP-9 proteins was visualized using a fluorescence microscope (Nikon, Tokyo, Japan).
(§4) We investigated whether the HO-3867-induced PTEN expression could suppresses MMP expression in SMCs.

[3] = test system: human aortic endothelial cells; test: Inhibitory effect on human aortic endothelial cells; type: cell-based; settings: 10 μM
[4] = test system: MMP-2, MMP-9, NF-κB p65, pERK1/2, pAkt, cyclin D1, p53, cleaved caspase-3; test: Western blot of regulatory proteins in rat carotid artery tissue after balloon injury; type: in vivo, Sprague-Dawley rats
Description: as §2
All experiments involving animals were performed in accordance with the relevant guidelines and regulations approved by the Internal Animal Care and Use Committee of The Ohio State University. Sprague-Dawley rats weighing 300 to 350 g were anesthetized by an intraperitoneal injection of ketamine (6 0 mg/kg) and xylazine (5 mg/kg). Under a stereomicroscope, the right common, external, and internal carotid arteries were exposed by a longitudinal midline cervical incision. Blood flow was temporarily interrupted by ligation of the common and internal carotid arteries using vessel clips. The external carotid artery was ligated permanently using 6-0 silk suture. A 2F Fogarty arterial embolectomy catheter (Edwards Lifesciences, Irvine, Calif.) was introduced through an arteriotomy in the external carotid artery just below the ligature and advanced to the common carotid artery. To produce the injury, the balloon was inflated with saline and passed six times with rotation from just under the proximal edge of the omohyoid muscle to the carotid bifurcation. The balloon was then deflated, and the catheter was withdrawn. Blood flow was restored by removing the clips on the common and internal carotid arteries. […]
(§5) Immediately after completion of the carotid injury procedure, subcutaneous administration of HO-3867 (in 10% DMSO+40% polyethylene glycol+50% PBS) commenced at a dose of 5 or 10 mg/kg/day, and continued for 2 weeks (n=5 for each group). […] The intimal and medial areas were measured using MetaMorph software (Molecular Devices, Sunnyvale, Calif.), and intimal/medial ratios were calculated.

MMP-9 [5] = test: MMP-9 activity by gelatin zymography in rat carotid artery; type: in vivo, Sprague-Dawley rats; settings: treatment group compared with injured/untreated group
Description: (§6) MMP-2 and MMP-9 was determined by gelatin zymography as reported previously (Cho and Reidy, 2002). Matrix metalloproteinase-9 is necessary for the regulation of smooth muscle cell replication and migration after arterial injury. Circ Res 91:845-851).
(§7) All experiments involving animals were performed in accordance with the relevant guidelines and regulations approved by the Internal Animal Care and Use Committee of The Ohio State University. Sprague-Dawley rats weighing 300 to 350 g were anesthetized by an intraperitoneal injection of ketamine (6 0 mg/kg) and xylazine (5 mg/kg). Under a stereomicroscope, the right common, external, and internal carotid arteries were exposed by a longitudinal midline cervical incision. Blood flow was temporarily interrupted by ligation of the common and internal carotid arteries using vessel clips. The external carotid artery was ligated permanently using 6-0 silk suture. […]
as §5, with “calculated. […]” for “calculated.”

[6] = test system: PTEN cDNA-transfected SMCs; test: PTEN cDNA-transfected SMCs treated with HO-3867 (survival, cell cycle, cleaved caspase-3); type: cell-based, human
Description: The PTEN siRNA and cDNA transfection experiments were performed as reported (Selvendiran et al., 2007, supra).
We investigated whether the PTEN overexpression was responsible for the inhibition of cell survival and proliferation in SMCs. We used wild-type PTEN cDNA transfection into SMCs for these experiments. Twenty-four hours after transfection, the cells were treated with 10 μM HO-3867 for 12 h.

FAK = FAK expression in SMCs (Western blot); type: cell-based, human; settings: 10 μM, 24-h exposure
Description: as §2

PTEN [7] = test: PTEN expression in rat carotid artery tissue after balloon injury; type: in vivo, Sprague-Dawley rats; settings: subcutaneous, 14 days
Description: as §2, §7
as §5, with “calculated. […]” for “calculated.”

PTEN [8] = test: PTEN expression and activation in SMCs (Western blot, immunofluorescence, RT-PCR); type: cell-based, human; set-up: PTEN mRNA expression: dose or concentration left out as unconfirmed
Description: as §2, §3
Total RNA was isolated from SMCs using the RNeasy system according to the instructions of the manufacturer. RNA quantification was done using spectrophotometry. Reverse transcription (RT)-PCR analysis for the mRNA expressions in PTEN and the internal control GAPDH was carried out using a GeneAmp PCR System Veriti thermo cycler (Applied Biosystems, Foster City, Calif.) under the following conditions: initial denaturation at 94 C for 2 min, 35 cycles of amplification (denaturation at 94 C for 30 s, annealing at 50 C for 30 s, and extension at 72 C for 30 s), and extension at 72 C for 5 min. The sequences (5′-3′) for the primer pairs of PTEN and GAPDH, respectively, were as follows:
This was further confirmed by immunofluorescence microscopy (FIG. 2B).
To confirm whether the increase in the expression of PTEN was due to its transcriptional induction by HO-3867, we performed RT-PCR analysis for PTEN mRNA.

MMP-2 [9] = test: MMP-2 activity by gelatin zymography in rat carotid artery; type: in vivo, Sprague-Dawley rats; settings: treatment group compared with injured/untreated group
Description: as §6, §7
as §5, with “calculated. […]” for “calculated.”

NF-κB p65 = NF-κB p65 expression in SMCs (Western blot); type: cell-based, human; settings: 10 μM, 24-h exposure
Description: as §2
In addition, HO-3867 inhibited NF-κB p65, one of the main regulator mechanisms in the inflammatory activation of MMP-9 in SMCs (FIG. 5A).

ATF-2 = ATF-2 activation in SMCs (Western blot); type: cell-based, human; set-up: dose or concentration left out as unconfirmed; settings: HO-3867 (FIG. 3A legend)
Description: as §2, §1

human aortic SMCs [10] = test: Cell cycle analysis by flow cytometry in SMCs; type: cell-based; settings: 10 μM for 12 or 24 h
Description: Flow cytometry was performed (Selvendiran K, Bratasz A, Tong L, Ignarro L J, and Kuppusamy P, NCX-4016, a nitro-derivative of aspirin, inhibits EGFR and STAT3 signaling and modulates Bcl-2 proteins in cisplatin-resistant human ovarian cancer cells and xenografts. Cell Cycle 7 :8188).
(§8) The cells were then treated with 0, 0.5, 1, 5, and 10 μM HO-3867 for 24 h, after which the cells were trypsinized and counted for viability. […] We observed inhibition of SMC proliferation by both phase-contrast microscopy (FIG. 1B) and by nuclear staining with DAPI (FIG. 1C). Next, we determined whether the growth inhibition of SMC by HO-3867 was due to cell cycle arrest or apoptosis. SMCs were treated with 10 μM HO-3867 for 12 or 24 h. The cells were then fixed, and cell cycle populations were determined by flow cytometry.

[11] = test system: p53, p21, ERK1/2, cyclin D1, Akt; test: Cell cycle regulatory proteins in SMCs (Western blot); type: cell-based, human; settings: SMCs treated with HO-3867
Description: as §2

reactive oxygen species = test: Production of reactive oxygen species in cultured SMCs; type: cell-based, human; settings: data not shown
Description: as §1

rat carotid artery = test: Neointimal formation after balloon injury in rat carotid artery (morphometric analysis); type: in vivo, Sprague-Dawley rats; settings: subcutaneous
Description: All experiments involving animals were performed in accordance with the relevant guidelines and regulations approved by the Internal Animal Care and Use Committee of The Ohio State University. Sprague-Dawley rats weighing 300 to 350 g were anesthetized by an intraperitoneal injection of ketamine (6 0 mg/kg) and xylazine (5 mg/kg). Under a stereomicroscope, the right common, external, and internal carotid arteries were exposed by a longitudinal midline cervical incision. Blood flow was temporarily interrupted by ligation of the common and internal carotid arteries using vessel clips. The external carotid artery was ligated permanently using 6-0 silk suture. A 2F Fogarty arterial embolectomy catheter (Edwards Lifesciences, Irvine, Calif.) was introduced through an arteriotomy in the external carotid artery just below the ligature and advanced to the common carotid artery. To produce the injury, the balloon was inflated with saline and passed six times with rotation from just under the proximal edge of the omohyoid muscle to the carotid bifurcation. The balloon was then deflated, and the catheter was withdrawn. Blood flow was restored by removing the clips on the common and internal carotid arteries. After visual inspection to ascertain adequate pulsation of the common carotid artery, the surgical incision was closed, and the rats were allowed to recover from anesthesia in a humidified and warmed chamber for 2 to 4 h.
as §5, with “group). The control group received the vehicle only. After treatment for 14 days, the animals were sacrificed with an overdose of pentobarbital (200 mg/kg), and the carotid arteries were collected for morphometric analysis and isolation of proteins for analysis by Western blotting.” for “group).”, “calculated. […]” for “calculated.”

MMP-2 [12] = test: MMP-2 expression in SMCs (Western blot, immunofluorescence); type: cell-based, human; settings: 10 μM for 12 or 24 h
Description: as §2, §3, §4

human aortic SMCs [13] = test: Serum-stimulated proliferation of human aortic SMCs (viable cell count); type: cell-based
Description: Human aortic SMCs were obtained at passage 3 (AoSMC; Lonza Walkersville, Inc., Walkersville, Md.). The cells were maintained in culture in a humidified incubator at 37 C and 5% CO2 in smooth muscle cell growth medium (SmG M-2). Cells were trypsinized and passaged at 95% confluence. Studies were performed using cells at passages 4 to 6 at 6 0 to 90% confluence. Cells were counted using an automated cell counter (NucleoCounter; New Brunswick Scientific, Edison, N.J.).
We first studied the effect of HO-3867 on serum-stimulated proliferation of human aortic SMCs, in vitro (FIG. 1A).
as §8

[14] = Western blot of carotid tissue, 14 days treatment
[15] = 10 μM, as early as 1 h of treatment, immunoblot

SMILES: CC1(C)C=C(CN2C/C(=C\c3ccc(F)cc3)C(=O)/C(=C/c3ccc(F)cc3)C2)C(C)(C)N1O [HO-3867, 1-[(1-Oxyl-2,2,5,5-tetramethyl-2,5-dihydro-1H-pyrrol-3-yl)methyl]-(3E,5E)-3,5-Bis(4-fluorobenzylidene)piperidin-4-one]
- activation of p38 mitogen-activated protein kinase [1]: did not detect
- MMP-9 expression (MMP-9 [2]): down-regulated
- inhibitory effect on human aortic endothelial cells [3]: did not have any significant inhibitory effect
- apoptosis in vivo (activation of cleaved caspase-3) ([4]; 10-mg/kg dose): induced apoptosis in vivo
- MMP-2, MMP-9, NF-κB p65, pERK1/2, pAkt, and cyclin D1 in tissue [4, 14]: down-regulation
- p53 and cleaved caspase-3 in tissue [4, 14]: up-regulation
- MMP-9 activity (MMP-9 [5]): significantly down-regulated
- survival of PTEN cDNA-transfected cells ([6]; 10 μM HO-3867, compared with untreated or nontransfected cells): even more significant reduction
- apoptotic population (sub-G1), PTEN cDNA overexpression plus HO-3867 ([6]; 10 μM, 12 h, compared with PTEN cDNA- or HO-3867-alone-treated groups): significantly increased
- cleaved caspase-3 levels, PTEN cDNA+HO-3867-treated cells ([6]; 10 μM, 12 h, compared with untreated or nontransfected cells): substantial increase
- expression of FAK (FAK): down-regulated
- PTEN level in carotid artery tissue (PTEN [7]; 5 mg/kg): restored PTEN to the control level
- PTEN level in carotid artery tissue (PTEN [7]; 10 mg/kg): increased the PTEN level significantly above control level
- PTEN activation (pPTEN) (PTEN [8]; [15]): induced
- PTEN expression (PTEN [8]; [15]): induced
- PTEN mRNA expression (PTEN [8]; RT-PCR, in 3 h): increase
- MMP-2 activity (MMP-2 [9]): significantly down-regulated
- NF-κB p65 (NF-κB p65): inhibited
- time to ATF-2 activation (ATF-2): ≤ 15 min
- sub-G1 population (apoptosis) (human aortic SMCs [10]): no effect
- G1 cell cycle arrest (human aortic SMCs [10]; time-dependent): induced G1 cell cycle arrest
- Akt level [11]: without any change
- ERK1/2 and cyclin D1 [11]: down-regulation
- p53 and p21 [11]: induction
- production of reactive oxygen species (reactive oxygen species): did not detect
- inhibition of neointimal formation (rat carotid artery; 5 mg/kg, 14 days, data not shown): did not show any significant inhibition
- intima/media ratio (rat carotid artery; daily for 14 days after balloon injury, versus injured/untreated): significantly reduced
- intimal thickening (rat carotid artery; daily for 14 days after balloon injury, 10 mg/kg (FIG. 7A)): significantly inhibited
- MMP-2 expression (MMP-2 [12]): down-regulated
- viable cell count (human aortic SMCs [13]; 0, 0.5, 1, 5, and 10 μM for 24 h, FBS-stimulated SMCs): decreased in a concentration-dependent manner
- EC50 (human aortic SMCs [13]; 10% FBS-stimulated human SMCs, HO-3867 for 24 h, viable cell count): 3.82 µM
- cell-counts (human aortic SMCs [13]; at 1, 5, and 10 μM, 24 h, p<0.05 versus untreated cells): Significantly reduced cell-counts
